Data taken from PMC6934184, “Selective DNA-PKcs inhibition extends the therapeutic index of localized radiotherapy and chemotherapy” (The Journal of Clinical Investigation, 2019).
Several values for one entry are separate records, joined by “and”; a condition that tells them apart may be missing. Equal entries are not always repeated. One block for each compound: values may come before it.

What was measured:
SJSA-1 tumor xenografts = test: subcutaneous SJSA-1 xenograft with parenteral etoposide; type: in vivo, CD-1 nude mice; settings: etoposide 5 mg/kg i.p., 5 consecutive days
Procedure: Combining systemic administration of etoposide + NU5455 in vivo
SJSA1 cells (1 x 10^7 cells/mouse in 50 µl, 50% v/v Matrigel) were implanted s.c. into the right flank of female CD-1 nude mice. When tumor volumes reached 103-121 mm3 mice were treated daily, for five consecutive days, with NU5455 (30 mg/kg or 100 mg/kg once -daily p.o. in NMP:Encapsin (30% aq):PEG4000 (1:6:3 v/v/v) ) or vehicle, followed immediately with etoposide (5 mg/kg i.p. in saline). Body weight and tumor volume measurements were taken daily during treatment and three times per week post -treatment. Tumor volume was calculated from two-dimensional electronic caliper measurements (Mitutoyo) using the equation ‘width2 x length/2’, where width was the smaller side, and length the longer dimension of the tumor. Mice were humanely killed when; (i) an adverse effect on clinical condition was evident, (ii) tumor bilateral measurements reached 10 mm x 10 mm, (iii) a tumor measurement in any di mension reached 15 mm, or (iv) at study termination. […]

[1] = system: NHEJ-mediated DSB repair in HEK293T cells; test: NHEJ plasmid repair assay; type: cell-based, Human; settings: 10 µM; 24 hours; AfeI or ScaI linearized plasmid
Procedure: The ability of NU5455 to impair the nonhomologous end joining (NHEJ) ability of cells was assessed using a modified version of a DNA repair assay developed by Nagel et al. ([52]), which measures the repair of a plasmid encoding blue fluorescent protein (BFP) and GFP linearized by either an ScaI or an AfeI restriction digestion. Full experimental details are given in Supplemental Methods.
(§1) Membranes were then washed in TBST and incubated with HRP-conjugated goat anti-mouse or anti-rabbit antibodies (P0447 and P0448 respectively, Dako) in 5% (w/v) milk/TBST at room temperature for 1-2 hours. Conjugates were detected using Clarity Western ECL Substrate (BioRad) and chemiluminescence imaged using the Fuji LAS-3000 Luminescent Image Analyzer System (Fujifilm).
Densitometry analysis was performed using AIDA Image Analyzer software (Raytest). The intensity of all bands was determined following a background subtraction, and the level of pDNA-PKcs stimulation determined by subtracting basal unstimulated pDNA-PKcs Ser2056 levels. pDNA-PKcs Ser2056 band intensity was calculated relative to total DNA-PKcs band intensity, and is given as percentage expression relative to irradiated, DMSO-treated cells. […]
violet laser with 440/50 emission filter to detect blue fluorescence using the VL1 channel. […]
Data were analyzed by FCS Express 6 Flow Research Edition (De Novo Software). […]

MCF7 cells = test: clonogenic survival with 2 Gy IR, DNA repair inhibitors; type: cell-based, Human; settings: 1 h before and 24 h after IR
Procedure: Cells were washed in phosphate-buffered saline (PBS), trypsinized and counted. Cells were then reseeded at a known density in drug-free medium into 10 cm dishes (100 - 10 000 cells/dish) and incubated for 8-21 days. Colonies were fixed using Carnoys fixture (75% v/v methanol, 25% v/v acetic acid, Fisher), stained with crystal violet (0.4% w/v in water), and counted using a ColCount automated colony counter (Oxford Optronics). Cell survival was calculated as a percentage of the untreated control.
Alternatively, exponentially growing MCF7 cells were exposed to a range of concentrations of the PARP inhibitor rucaparib, the ATM inhibitor KU55933, the ATR inhibitor VE-821 or NU5455 for 1 hour prior to irradiation with 2 Gy. Cells were then incubated in the continued presence of the DNA repair inhibitors for a further 24 hours prior to replating. […]

PI3K = test: IGF-1-stimulated phospho-AKT Ser473 in MCF7 cells, Western blot; type: cell-based, Human; settings: 1 μM, 50 ng/mL IGF-1, 30 min
Procedure: (§2) Exponentially growing MCF7 cells were exposed to a range of concentrations of NU5455 and NU7441 (0.03–10 μM) for 1 hour. To assess the ability of NU5455 and NU7441 to inhibit autophosphorylation of DNA-PKcs at Ser2056, cells were treated with 10 Gy irradiation and incubated for 30 minutes. Alternatively, to investigate the effects of NU5455 and NU7441 against PI3K-dependent phosphorylation of AKT at Ser473, cells were treated with 50 ng/mL insulin-like growth factor-1 (IGF-1; Invitrogen) for 30 minutes. Cell lysates were prepared for the detection of p–DNA-PKcs Ser2056 and total DNA-PKcs, or p–AKT Ser473 and total AKT, respectively, using Western blotting. […]
(§3) Protein lysates were quantified using the Pierce BCA Protein Assay (ThermoFisher). […]
as §1, with “(Fujifilm). […]” for “(Fujifilm).”
(§4) Alternatively, basal pAKT Ser473 levels were subtracted from all other pAKT bands, and pAKT band intensity calculated relative to total AKT expression and given as a percentage relative to IGF-1 stimulated, DMSO-treated cells. […]

DNA-PK = DNA-PK (Homo sapiens, UniProt P78527); test: radiation-induced phospho-DNA-PK Ser2056 in MCF7 cells, Western blot; type: cell-based; parameters: endogenous in cells; host or cells: MCF7; settings: 1 h pretreatment, 30 min after 10 Gy IR, read-out: IC50, radiation-induced activation of DNA-PK (phospho–DNA-PK Ser2056)
Procedure: as §2, §3
as §1, with “(Fujifilm). […]” for “(Fujifilm).”
as §4

A549 = test: growth inhibition, 72 hour incubation; type: cell-based, Human; settings: read-out: Nutlin-3a GI50, individual determinations
Procedure: (§5) Supplemental Table 3. TP53 status of cell lines used.
(§6) incubation with the compound (see Supplemental Methods). GI50 values shown represent either individual determinations or the
(§7) References: (1) Melnikova VO et al., Oncogene, […]

Calu6 = test: growth inhibition, 72 hour incubation; type: cell-based, Human; settings: read-out: Nutlin-3a GI50, individual determinations
Procedure: as §5, §6, §7

HCT116 = test: growth inhibition, 72 hour incubation; type: cell-based, Human; settings: read-out: Nutlin-3a GI50, mean with standard deviation
Procedure: as §5, §6, §7

Hep3B = test: growth inhibition, 72 hour incubation; type: cell-based, Human; settings: read-out: Nutlin-3a GI50, individual determinations
Procedure: as §5, §6, §7

Huh7 = test: growth inhibition, 72 hour incubation; type: cell-based, Human; settings: read-out: Nutlin-3a GI50, individual determinations
Procedure: as §5, §6, §7

MCF10a = test: growth inhibition, 72 hour incubation; type: cell-based, Human; settings: read-out: Nutlin-3a GI50, mean with standard deviation
Procedure: as §5, §6, §7

NHDF = test: growth inhibition, 72 hour incubation; type: cell-based, Human; settings: read-out: Nutlin-3a GI50, individual determination
Procedure: as §5, §6, §7

SN40R2 = test: growth inhibition, 72 hour incubation; type: cell-based, Human; settings: read-out: Nutlin-3a GI50, individual determination
Procedure: as §5, §6, §7

HepG2 = test: growth inhibition, 72 hour incubation; type: cell-based, Human; settings: read-out: Nutlin-3a GI50, mean with standard deviation
Procedure: HepG2 Human WT 1.0 ± 0.18 COSMIC […]
as §5, §6, §7

MCF7 = test: growth inhibition, 72 hour incubation; type: cell-based, Human; settings: read-out: Nutlin-3a GI50, mean with standard deviation
Procedure: MCF7 Human WT 2.3 ± 0.20 COSMIC […]
as §5, §6, §7

4T1 = test: growth inhibition, 72 hour incubation; type: cell-based, Mouse; settings: read-out: Nutlin-3a GI50, individual determinations
Procedure: as §5, §6, §7

B16F10 = test: growth inhibition, 72 hour incubation; type: cell-based, Mouse; settings: read-out: Nutlin-3a GI50, mean with standard deviation
Procedure: as §5, §6, §7

M2-10B4 = test: growth inhibition, 72 hour incubation; type: cell-based, Mouse; settings: read-out: Nutlin-3a GI50, mean with standard deviation
Procedure: as §5, §6, §7

NIH3T3 = test: growth inhibition, 72 hour incubation; type: cell-based, Mouse; settings: read-out: Nutlin-3a GI50, mean with standard deviation
Procedure: as §5, §6, §7

SJSA-1 = test: growth inhibition, 72 hour incubation; type: cell-based, Human; settings: read-out: Nutlin-3a GI50, mean with standard deviation
Procedure: SJSA-1 Human WT 1.9 ± 0.19 COSMIC […]
as §5, §6, §7

SMILES: COc1cc([C@@H]2c3cc4c(cc3[C@@H](O[C@@H]3O[C@@H]5CO[C@@H](C)O[C@H]5[C@H](O)[C@H]3O)[C@H]3COC(=O)[C@H]23)OCO4)cc(OC)c1O [Etoposide, etoposide, reference compound]
- antitumor effect, monotherapy (SJSA-1 tumor xenografts): relatively marginal antitumor effect

SMILES: O=c1cc(-c2cccc3c2Sc2ccccc2S3)oc(N2CCOCC2)c1 [KU55933, reference compound]
- repair of DNA-DSBs (NHEJ plasmid repair) [1]: NU5455 but not the ATM inhibitor KU55933 inhibits NHEJ-mediated DSB repair
- SER (sensitization enhancement ratio), enhancement of 2 Gy IR clonogenic cell killing (MCF7 cells; at 10 μM): 2.3 fold

- IC50 (DNA-PK): 405 nM
SMILES: O=c1cc(N2CCOCC2)oc2c(-c3cccc4c3sc3ccccc34)cccc12 [NU7441, reference compound]
- inhibition of IGF/PI3K-stimulated signaling response (phospho–AKT Ser473) (PI3K): 40% ± 7%

- GI50 (A549): 2400 nM and 2900 nM
- GI50 (Calu6): > 30000 nM
- GI50 (HCT116): 2100 ± 710 nM
- GI50 (Hep3B): > 30000 nM
- GI50 (Huh7): > 10000 nM and 27000 nM
- GI50 (HepG2): 1000 ± 180 nM
- GI50 (MCF7): 2300 ± 200 nM
- GI50 (4T1): > 30000 nM
- GI50 (B16F10): 5700 ± 1800 nM
- GI50 (SJSA-1): 1900 ± 190 nM
SMILES: COc1ccc(C2=N[C@@H](c3ccc(Cl)cc3)[C@@H](c3ccc(Cl)cc3)N2C(=O)N2CCNC(=O)C2)c(OC(C)C)c1 [Nutlin-3a]
- GI50 (MCF10a): 5100 ± 2800 nM
- GI50 (NHDF): 2700 nM
- GI50 (SN40R2): > 30000 nM
- GI50 (M2-10B4): 3300 ± 640 nM
- GI50 (NIH3T3): 4000 ± 1100 nM

SMILES: CS(=O)(=O)c1ccc(-c2cnc(N)c(C(=O)Nc3ccccc3)n2)cc1 [VE-821]
- SER (sensitization enhancement ratio), enhancement of 2 Gy IR clonogenic cell killing (MCF7 cells; at 1 μM): 1.6 fold

SMILES: CNCc1ccc(-c2[nH]c3cc(F)cc4c3c2CCNC4=O)cc1 [rucaparib]
- SER (sensitization enhancement ratio), enhancement of 2 Gy IR clonogenic cell killing (MCF7 cells; at 1 μM): 1.4 fold
